Key:
blood cholesterol = assay: Human dose-response study, blood cholesterol, triglycerides and glucose (Example V, Table E); type: in vivo, humans; conditions: for % Change After 8 Days, Cholesterol: linear effect p .21; for % Change After 8 Days, LDL: linear effect p .26; for % Change After 8 Days, Triglycerides: linear effect p .50; for % Change After 8 Days, HDL: linear effect p .85; for % Change After 8 Days, Glucose: linear effect p .99
Procedure: (§1) Higher dose levels than in Example IV of Ca-HMB were tested in humans. The objective was to obtain an indication of whether higher doses could be safely administered, and also whether higher doses might provide a greater reduction in total cholesterol and LDL cholesterol.
(§2) Normal humans were used in the study. Ca-HMB was administered in 250 mg capsules, and the subjects were instructed to take the capsules in 4 equal doses daily. No control of diet was attempted except they were instructed to eat as they normally would. On alternate days the subjects had blood drawn before the morning meal and before they took the morning HMB dose. Four subjects were studied for dose level of 05., 1, 2 and 4 grams per day.
(§3) Results from all samples of each subject were subjected to linear regression and the slope and intercept used to calculate the % change in concentration after 8 days on treatment. The percentage changes were then subjected to ANOVA-regression to determine if there was a linear effect of dosage on the parameter. The dose-response effect (p<) is listed in the linear effect column of Table E.

[1] = Human dose-response study, body weight and body fat (Example V, Table E); type: in vivo, humans; conditions: for % Change After 8 Days, Body fat (%): linear effect NS; for % Change After 8 Days, Weight: linear effect p .32
Procedure: as §1, §2, §3

[2] = Hygroscopicity of HMB salts; type: physicochemical; conditions: compared with sodium or potassium salts
aorta = assay: Pig feeding study, aorta streaking (pre-atherosclerotic lesions) (Example III, Table C); type: in vivo, pigs; conditions: dietary .05%; 0 least severe to 3.2 most severe; control 1.87; HMB p .06, KIC ns
Procedure: (§4) A further large mammal study was carried out with pigs. Pigs comprise test animals which are more similar in certain respects to humans than ruminants.
(§5) Control: 60 g. of calcium
(§6) The pigs were housed in pens of two animals each and were allowed ad libitum access to food and water. Pigs were approximately 160 lbs. at the start of the experiment and were 240 lbs. at the end. All pigs were castrate males. At day 28 and day 43 of the experiment blood was collected from the anterior vena cava by venipuncture. Blood was collected into EDTA containing tubes, centrifuged and frozen until analyzed. At approximately 100 days of the experiment half of the animals (32) were slaughtered, and at 120 days the remaining 32 animals were slaughtered. At the time of slaughter the abdominal aorta was dissected out and external fat removed. The aorta was then split lengthwise and 1/2 fixed in formaldehyde for 48 hours. At this time aortas were removed, stretched over a 6 inch stick, washed in ethanol and stained with a lipid stain for 2 hours. After a 1 hour wash aortas were blotted and examined. All the aortas from a group were laid out on a white bench and arranged in order from least sever to most sever. The least sever had no dark red streaks on the aorta or around the small vertebral vessels leaving the aorta. The most sever lesions had multiple streaks in the middle of the aorta and dark red deposits in turbulent areas such as the branching of vessels from the aorta. The ordered aortas were then assigned a consecutive decimal number. The first (least severe) was assigned 0 and the most severe was assigned 3.2 Plasma cholesterol and triglycerides were measured by an enzyme-colorimetric assay (Sigma).
(§7) statistical analysis was accomplished by the general linear model procedure of the Statistical Analysis System (SAS). The model included the main effects of treatment and pen number. T-tests were conducted from the ANOVA standard error, to compare the HMB treatments to the control. […] It appeared that HMB can partially prevent the formation of pre-atherosclerotic lesions. No effect of KIC was noted relative to any parameter.

[3] = test system: plasma cholesterol and triglycerides; assay: Pig feeding study, plasma cholesterol and triglycerides (Example III, Table C); type: in vivo, pigs
Procedure: as §4, §5, §6, §7

SMILES: CC(C)(O)CC(=O)O [Ca-HMB]
- % Change After 8 Days, Cholesterol (blood cholesterol; 0.5 g daily): 6%
- % Change After 8 Days, LDL (blood cholesterol; 0.5 g daily): 2%
- % Change After 8 Days, Triglycerides (blood cholesterol; 0.5 g daily): 26%
- % Change After 8 Days, HDL (blood cholesterol; 0.5 g daily): 0%
- % Change After 8 Days, Glucose (blood cholesterol; 0.5 g daily): -7%
- % Change After 8 Days, Cholesterol (blood cholesterol; 1.0 g daily): 1%
- % Change After 8 Days, LDL (blood cholesterol; 1.0 g daily): 0%
- % Change After 8 Days, Triglycerides (blood cholesterol; 1.0 g daily): -16%
- % Change After 8 Days, HDL (blood cholesterol; 1.0 g daily): 6%
- % Change After 8 Days, Glucose (blood cholesterol; 1.0 g daily): 2%
- % Change After 8 Days, Cholesterol (blood cholesterol; 2 g daily): -2%
- % Change After 8 Days, LDL (blood cholesterol; 2 g daily): -3%
- % Change After 8 Days, Triglycerides (blood cholesterol; 2 g daily): -8%
- % Change After 8 Days, HDL (blood cholesterol; 2 g daily): 1%
- % Change After 8 Days, Glucose (blood cholesterol; 2 g daily): -5%
- % Change After 8 Days, Cholesterol (blood cholesterol; 4 g daily): -4%
- % Change After 8 Days, LDL (blood cholesterol; 4 g daily): -6%
- % Change After 8 Days, Triglycerides (blood cholesterol; 4 g daily): 36%
- % Change After 8 Days, HDL (blood cholesterol; 4 g daily): 0%
- % Change After 8 Days, Glucose (blood cholesterol; 4 g daily): -4%
- % Change After 8 Days, Body fat (%) ([1]; 0.5 g daily): 5%
- % Change After 8 Days, Weight ([1]; 0.5 g daily): 1.7%
- % Change After 8 Days, Body fat (%) ([1]; 1.0 g daily): -18%
- % Change After 8 Days, Weight ([1]; 1.0 g daily): -.3%
- % Change After 8 Days, Body fat (%) ([1]; 2 g daily): -15%
- % Change After 8 Days, Weight ([1]; 2 g daily): .5%
- % Change After 8 Days, Body fat (%) ([1]; 4 g daily): -1%
- % Change After 8 Days, Weight ([1]; 4 g daily): .2%
- hygroscopicity [2]: less hydroscopic than the sodium or potassium salts

SMILES: CC(C)CC(=O)C(=O)O [KIC, ketoisocaproic acid, reference compound]
- Aorta Streaking (aorta): 1.48
- effect relative to any parameter ([3]; 0.05% KIC in diet, aorta streaking, plasma cholesterol, triglycerides): No effect
- Plasma Triglycerides ([3]; dietary .05%, control 107, ns): 106 mg %
- Plasma Cholesterol ([3]; dietary .05%, control 135, HMB p .05, KIC ns): 139 mg %
